What was measured:
[1] = xn = mol fraction of the nth substance listed; settings: 101 kPa, Liquid
[2] = excess molar enthalpy (molar enthalpy of mixing); xn = mol fraction of the nth substance listed; settings: 101 kPa, Liquid, Flow calorimetry
[3] = 101.33 kPa, Liquid
[4] = refractive index (Na D-line) (dimensionless); settings: 101.33 kPa, Liquid, Standard Abbe refractometry

CCCC[n+]1ccc(C)cc1.F[B-](F)(F)F [1-butyl-4-methylpyridinium tetrafluoroborate] + CCCO
Settings | excess molar enthalpy [kcal/mol] | mass density [kg/m3]
[1], 298.15 K, x1 = 0.0154 | – | 815.6
[1], 298.15 K, x1 = 0.0271 | – | 827.2
[1], 298.15 K, x1 = 0.2988 | – | 1006.8
[1], 298.15 K, x1 = 0.3987 | – | 1047.4
[1], 298.15 K, x1 = 0.4965 | – | 1079.8
[1], 298.15 K, x1 = 0.5972 | – | 1107.8
[1], 298.15 K, x1 = 0.6889 | – | 1129.1
[1], 298.15 K, x1 = 0.696 | – | 1130.6
[1], 298.15 K, x1 = 0.7812 | – | 1147.9
[1], 298.15 K, x1 = 0.8841 | – | 1165.9
[1], 318.15 K, x1 = 0.0549 | – | 837.6
[1], 318.15 K, x1 = 0.1008 | – | 875.1
[1], 318.15 K, x1 = 0.1969 | – | 939.6
[1], 318.15 K, x1 = 0.3103 | – | 997.6
[1], 318.15 K, x1 = 0.3828 | – | 1027.5
[1], 318.15 K, x1 = 0.4381 | – | 1047.4
[1], 318.15 K, x1 = 0.4534 | – | 1052.4
[1], 318.15 K, x1 = 0.4901 | – | 1064
[1], 318.15 K, x1 = 0.6039 | – | 1095.2
[1], 318.15 K, x1 = 0.6726 | – | 1111.2
[1], 318.15 K, x1 = 0.8248 | – | 1141.4
[1], 318.15 K, x1 = 0.8967 | – | 1156.9
[1], 318.15 K, x1 = 0.9191 | – | 1153.3
[2], 298.15 K, x1 = 0.012 | 0.0315 | –
[2], 298.15 K, x1 = 0.0243 | 0.0516 | –
[2], 298.15 K, x1 = 0.0308 | 0.0719 | –
[2], 298.15 K, x1 = 0.3198 | 0.596 | –
[2], 298.15 K, x1 = 0.3532 | 0.588 | –
[2], 298.15 K, x1 = 0.3908 | 0.579 | –
[2], 298.15 K, x1 = 0.4344 | 0.56 | –
[2], 298.15 K, x1 = 0.4819 | 0.54 | –
[2], 298.15 K, x1 = 0.5374 | 0.505 | –
[2], 298.15 K, x1 = 0.6008 | 0.457 | –
[2], 298.15 K, x1 = 0.6734 | 0.394 | –
[2], 298.15 K, x1 = 0.752 | 0.315 | –
[2], 298.15 K, x1 = 0.8319 | 0.237 | –
[2], 298.15 K, x1 = 0.9181 | 0.138 | –
[2], 318.15 K, x1 = 0.0189 | 0.0927 | –
[2], 318.16 K, x1 = 0.054 | 0.229 | –
[2], 318.17 K, x1 = 0.093 | 0.351 | –
[2], 318.18 K, x1 = 0.1341 | 0.454 | –
[2], 318.19 K, x1 = 0.1775 | 0.543 | –
[2], 318.2 K, x1 = 0.2167 | 0.609 | –
[2], 318.21 K, x1 = 0.2312 | 0.641 | –
[2], 318.22 K, x1 = 0.2581 | 0.67 | –
[2], 318.23 K, x1 = 0.2912 | 0.692 | –
[2], 318.24 K, x1 = 0.331 | 0.708 | –
[2], 318.25 K, x1 = 0.3847 | 0.704 | –
[2], 318.26 K, x1 = 0.4488 | 0.69 | –
[2], 318.27 K, x1 = 0.5249 | 0.65 | –
[2], 318.28 K, x1 = 0.6069 | 0.585 | –
[2], 318.29 K, x1 = 0.6964 | 0.496 | –
[2], 318.3 K, x1 = 0.7815 | 0.405 | –
[2], 318.31 K, x1 = 0.846 | 0.309 | –
[2], 318.32 K, x1 = 0.9043 | 0.197 | –
[2], 318.33 K, x1 = 0.9568 | 0.104 | –

CCCCCO [pentan-1-ol]
Settings | mass density [kg/m3]
[3], 318.15 K, Vibrating tube method | 796.1

[4]
Settings | refractive index
298.15 K | 1.4078
318.15 K | 1.4003

CCCC[n+]1ccc(C)cc1.F[B-](F)(F)F [1-butyl-4-methylpyridinium tetrafluoroborate] + CCCCO
Settings | excess molar enthalpy [kcal/mol] | mass density [kg/m3]
[1], 298.15 K, x1 = 0.5948 | – | 1094.4
[1], 298.15 K, x1 = 0.692 | – | 1120.2
[1], 298.15 K, x1 = 0.739 | – | 1131.5
[1], 298.15 K, x1 = 0.7851 | – | 1141.8
[1], 298.15 K, x1 = 0.8916 | – | 1163.9
[1], 318.15 K, x1 = 0.0548 | – | 833.2
[1], 318.15 K, x1 = 0.1169 | – | 875.7
[1], 318.15 K, x1 = 0.2301 | – | 940.7
[1], 318.15 K, x1 = 0.3406 | – | 992.1
[1], 318.15 K, x1 = 0.4471 | – | 1033.5
[1], 318.15 K, x1 = 0.564 | – | 1071.4
[1], 318.15 K, x1 = 0.6758 | – | 1102.2
[1], 318.15 K, x1 = 0.7856 | – | 1128.1
[1], 318.15 K, x1 = 0.8427 | – | 1140
[1], 318.15 K, x1 = 0.887 | – | 1148.6
[2], 318.15 K, x1 = 0.0242 | 0.112 | –
[2], 318.16 K, x1 = 0.0613 | 0.226 | –
[2], 318.17 K, x1 = 0.1029 | 0.339 | –
[2], 318.18 K, x1 = 0.1466 | 0.429 | –
[2], 318.19 K, x1 = 0.1938 | 0.527 | –
[2], 318.2 K, x1 = 0.24 | 0.601 | –
[2], 318.21 K, x1 = 0.2864 | 0.654 | –
[2], 318.22 K, x1 = 0.3344 | 0.694 | –
[2], 318.23 K, x1 = 0.3708 | 0.704 | –
[2], 318.24 K, x1 = 0.4149 | 0.707 | –
[2], 318.25 K, x1 = 0.4635 | 0.69 | –
[2], 318.26 K, x1 = 0.5162 | 0.667 | –
[2], 318.27 K, x1 = 0.5729 | 0.623 | –
[2], 318.28 K, x1 = 0.6488 | 0.542 | –
[2], 318.29 K, x1 = 0.7232 | 0.463 | –
[2], 318.3 K, x1 = 0.7962 | 0.361 | –
[2], 318.31 K, x1 = 0.8569 | 0.278 | –
[2], 318.32 K, x1 = 0.9006 | 0.195 | –
[2], 318.33 K, x1 = 0.9435 | 0.129 | –

CCCC[n+]1ccc(C)cc1.F[B-](F)(F)F [1-butyl-4-methylpyridinium tetrafluoroborate]
Settings | mass density, [3] [kg/m3] | refractive index, [4]
298.15 K | 1183.49 | 1.4517
318.15 K | 1169.12 | 1.447

CCCC[n+]1ccc(C)cc1.F[B-](F)(F)F [1-butyl-4-methylpyridinium tetrafluoroborate] + CCO
Settings | excess molar enthalpy [kcal/mol] | mass density [kg/m3]
[1], 298.15 K, x1 = 0.0523 | – | 852
[1], 298.15 K, x1 = 0.1023 | – | 901.7
[1], 298.15 K, x1 = 0.1469 | – | 938.3
[1], 298.15 K, x1 = 0.2023 | – | 976
[1], 298.15 K, x1 = 0.307 | – | 1030.5
[1], 298.15 K, x1 = 0.3801 | – | 1059.5
[1], 298.15 K, x1 = 0.4445 | – | 1080.8
[1], 298.15 K, x1 = 0.5069 | – | 1098.6
[1], 298.15 K, x1 = 0.5553 | – | 1110.8
[1], 298.15 K, x1 = 0.6045 | – | 1121.8
[1], 298.15 K, x1 = 0.6639 | – | 1134.2
[1], 298.15 K, x1 = 0.7127 | – | 1142.8
[1], 298.15 K, x1 = 0.7447 | – | 1148.4
[1], 298.15 K, x1 = 0.7964 | – | 1156.8
[1], 298.15 K, x1 = 0.8673 | – | 1167
[1], 298.15 K, x1 = 0.9171 | – | 1173.6
[1], 318.15 K, x1 = 0.0464 | – | 827.9
[1], 318.15 K, x1 = 0.0965 | – | 881.1
[1], 318.15 K, x1 = 0.1445 | – | 921.6
[1], 318.15 K, x1 = 0.2494 | – | 987.9
[1], 318.15 K, x1 = 0.2968 | – | 1011
[1], 318.15 K, x1 = 0.3855 | – | 1046.8
[1], 318.15 K, x1 = 0.4947 | – | 1080.9
[1], 318.15 K, x1 = 0.5877 | – | 1103.6
[1], 318.15 K, x1 = 0.6821 | – | 1123.2
[1], 318.15 K, x1 = 0.7798 | – | 1139.8
[1], 318.15 K, x1 = 0.8267 | – | 1146.8
[1], 318.15 K, x1 = 0.8776 | – | 1153.8
[2], 298.15 K, x1 = 0.0209 | 0.0715 | –
[2], 298.15 K, x1 = 0.0461 | 0.149 | –
[2], 298.15 K, x1 = 0.0751 | 0.224 | –
[2], 298.15 K, x1 = 0.1068 | 0.285 | –
[2], 298.15 K, x1 = 0.1406 | 0.358 | –
[2], 298.15 K, x1 = 0.1751 | 0.419 | –
[2], 298.15 K, x1 = 0.2104 | 0.481 | –
[2], 298.15 K, x1 = 0.246 | 0.527 | –
[2], 298.15 K, x1 = 0.2661 | 0.554 | –
[2], 298.15 K, x1 = 0.3 | 0.571 | –
[2], 298.15 K, x1 = 0.3402 | 0.58 | –
[2], 298.15 K, x1 = 0.3855 | 0.57 | –
[2], 298.15 K, x1 = 0.4296 | 0.545 | –
[2], 298.15 K, x1 = 0.4879 | 0.505 | –
[2], 298.15 K, x1 = 0.5522 | 0.455 | –
[2], 298.15 K, x1 = 0.6225 | 0.389 | –
[2], 298.15 K, x1 = 0.712 | 0.318 | –
[2], 298.15 K, x1 = 0.8071 | 0.223 | –
[2], 298.15 K, x1 = 0.903 | 0.12 | –
[2], 318.15 K, x1 = 0.0162 | 0.0906 | –
[2], 318.16 K, x1 = 0.0465 | 0.211 | –
[2], 318.17 K, x1 = 0.075 | 0.315 | –
[2], 318.18 K, x1 = 0.108 | 0.408 | –
[2], 318.19 K, x1 = 0.1427 | 0.495 | –
[2], 318.2 K, x1 = 0.178 | 0.566 | –
[2], 318.21 K, x1 = 0.2091 | 0.623 | –
[2], 318.22 K, x1 = 0.2364 | 0.658 | –
[2], 318.23 K, x1 = 0.2498 | 0.683 | –
[2], 318.24 K, x1 = 0.2824 | 0.708 | –
[2], 318.25 K, x1 = 0.3237 | 0.718 | –
[2], 318.26 K, x1 = 0.3722 | 0.717 | –
[2], 318.27 K, x1 = 0.4286 | 0.697 | –
[2], 318.28 K, x1 = 0.4859 | 0.664 | –
[2], 318.29 K, x1 = 0.5506 | 0.618 | –
[2], 318.3 K, x1 = 0.6196 | 0.558 | –
[2], 318.31 K, x1 = 0.6923 | 0.483 | –
[2], 318.32 K, x1 = 0.7625 | 0.404 | –
[2], 318.33 K, x1 = 0.8348 | 0.315 | –
[2], 318.34 K, x1 = 0.9014 | 0.213 | –
[2], 318.35 K, x1 = 0.9592 | 0.102 | –

CCCC[n+]1ccc(C)cc1.F[B-](F)(F)F [1-butyl-4-methylpyridinium tetrafluoroborate] + CCCCCO
[1], 318.15 K
Settings | mass density [kg/m3]
x1 = 0.5651 | 1060.4
x1 = 0.6035 | 1072.1
x1 = 0.6715 | 1091.9
x1 = 0.7601 | 1115.3
x1 = 0.8041 | 1126.1
x1 = 0.8616 | 1139.6
x1 = 0.912 | 1150.8

Source: the NIST ThermoML archive (doi:10.1016/j.jct.2008.02.019)
